Patent US8017398B2, “Method for assaying protein-protein interaction” (Life Technologies Corporation, priority 2003, dated 2011)

Columns and labels:
[1] = biological target: T1, ADRB2 (Homo sapiens, UniProt P07550); assay: chemiluminescence β-galactosidase reporter assay, ADRB2-tTA + ARRB2-TEV-NIa protease, clone 41 cells; format: cell-based; conditions: ADRB2-tTA low efficiency cleavage site
T1 construct: to produce three, full length constructs encoding fusion proteins; expressed in transfected cells; host or cells: HEK-293T and clone 41 (HEK-293T derivative)
T1 sequence (P07550 whole entry, the tested form may be a part): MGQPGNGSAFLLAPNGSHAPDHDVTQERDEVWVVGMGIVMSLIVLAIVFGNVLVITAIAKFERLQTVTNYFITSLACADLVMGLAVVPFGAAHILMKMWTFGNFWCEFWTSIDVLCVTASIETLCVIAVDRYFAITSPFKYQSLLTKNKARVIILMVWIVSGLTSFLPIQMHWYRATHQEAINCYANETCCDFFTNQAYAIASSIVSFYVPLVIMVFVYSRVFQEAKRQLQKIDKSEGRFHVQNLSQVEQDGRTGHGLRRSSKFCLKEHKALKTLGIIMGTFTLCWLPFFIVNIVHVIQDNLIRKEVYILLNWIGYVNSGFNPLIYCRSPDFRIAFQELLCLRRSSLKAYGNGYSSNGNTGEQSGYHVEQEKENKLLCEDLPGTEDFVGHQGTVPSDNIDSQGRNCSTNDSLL

[2] = biological target: T2, human Type I Interferon Receptor (Homo sapiens, UniProt P17181+P48551); assay: IFNAR1-GAL4-NF-κB + IFNAR2.2-TEV luciferase reporter assay, CHO-K1 cells; format: cell-based, hamster; conditions: control pcDNA3 plasmid
T2 construct: expressed in transfected cells; host or cells: CHO-K1
T2 sequence (P17181 28-557): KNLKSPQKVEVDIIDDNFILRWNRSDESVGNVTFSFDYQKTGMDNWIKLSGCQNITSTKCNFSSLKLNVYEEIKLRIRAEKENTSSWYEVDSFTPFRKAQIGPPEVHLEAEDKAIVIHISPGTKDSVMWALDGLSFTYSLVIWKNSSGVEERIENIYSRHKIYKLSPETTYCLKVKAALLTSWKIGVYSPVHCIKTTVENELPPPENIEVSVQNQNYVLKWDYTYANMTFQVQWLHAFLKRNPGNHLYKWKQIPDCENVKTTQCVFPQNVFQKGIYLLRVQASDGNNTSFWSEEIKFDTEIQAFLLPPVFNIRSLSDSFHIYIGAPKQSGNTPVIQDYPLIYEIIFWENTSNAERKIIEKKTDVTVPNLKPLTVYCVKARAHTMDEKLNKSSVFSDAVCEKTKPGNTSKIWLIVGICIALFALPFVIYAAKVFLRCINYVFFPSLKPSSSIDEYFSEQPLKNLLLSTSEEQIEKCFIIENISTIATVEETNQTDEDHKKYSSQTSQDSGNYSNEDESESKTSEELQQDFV
T2 sequence (P48551 27-515): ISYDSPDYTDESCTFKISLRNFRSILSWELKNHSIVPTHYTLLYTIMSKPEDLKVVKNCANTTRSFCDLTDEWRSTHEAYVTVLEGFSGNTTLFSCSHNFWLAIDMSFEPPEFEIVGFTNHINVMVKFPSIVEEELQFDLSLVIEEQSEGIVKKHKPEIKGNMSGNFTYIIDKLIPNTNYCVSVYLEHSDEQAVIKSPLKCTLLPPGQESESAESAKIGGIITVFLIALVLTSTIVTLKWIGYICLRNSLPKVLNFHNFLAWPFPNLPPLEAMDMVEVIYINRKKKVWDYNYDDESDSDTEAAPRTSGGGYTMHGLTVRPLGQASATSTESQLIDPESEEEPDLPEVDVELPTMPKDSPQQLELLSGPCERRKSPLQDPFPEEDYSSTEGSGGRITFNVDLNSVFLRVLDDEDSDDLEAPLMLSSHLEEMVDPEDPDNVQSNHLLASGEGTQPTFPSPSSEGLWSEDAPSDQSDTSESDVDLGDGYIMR

effect on reporter gene activity in cells transfected with the reporter and control plasmids [2] | Compound | induction of reporter gene activity by agonist of another GPCR (P2Y1, P2Y2) [1]
– | Nc1ncnc2c1ncn2[C@@H]1O[C@H](COP(=O)(O)OP(=O)(O)OP(=O)(O)O)[C@@H](O)[C@H]1O [ATP] | Stimulation of another GPCR pathway was irrelevant
no effect | IFN-α | –
